Results: US9447136B2, “Semisynthetic derivatives of Nystatin A1” (BLIRT S.A., priority 2012, dated 2016)
Values after ≈ are worked out from the molar mass of the structure shown.

Key:
[1] = system: LLC-PK1; assay: Cytotoxic activity against mammalian cells in tissue culture (MTT); type: cell-based, pig
Description: (§1) For examinations were used selected cell lines: CCRF-CEM—human acute lymphoblastic leukemia; HepG2—human malignant hepatoma; LLC-PK1—epithelial cell of pig kidney; All lines were from ATCC collection.
(§2) The study are conducted using described below methods of culturing and determination of cytotoxic activity.
(§3) CCRF-CEM cells were cultured in medium RPMI 1640+10% fetal bovine serum (FBS), LLC-PK1 cells in medium Medium 199+3% FBS, HepG2 cells in medium MEM+10% FBS. All media contained 100 μg/ml of penicillin G and streptomycin. 24-wells microplates containing appropriate medium were inoculated with the cells in amount of 1.2×10^4 cells/well and allowed to stand overnight. Next, tested compounds as solution in dimethylsulfoxide (DMSO) were added in volume of 10 μl (serial 2× dilutions). To control well 10 μl of DMSO was added. Microplates with cell suspensions were incubated for 120 h at temperature 37° C. at atmosphere of 95%/5% CO2. After incubation, to all wells 200 μl of solution of 3-(4,5-dimethylthiazole-2-yl)-2,5-diphenylotetrazole bromide (MTT) in PBS (4 mg/ml) was added and plates were further incubated for 4 h at 37° C. Next, to dissolve crystals of formazane 1 ml of DMSO was added and absorption of solutions was measured at the wavelength λ=540 nm (A540), using a microplates reader (Victor^3, Perkin-Wallac). […] From these graphs IC50 values were read, that is concentration of tested compound in the presence at which A540 value is half of A540 value measured in the control sample.

[2] = system: Human erythrocytes; assay: Hemotoxicity (hemolytic activity)
Outline: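 Human erythrocytes in saline (2×10^7/ml) were incubated with serially diluted compound at 37 °C for 30 min, then centrifuged. Released hemoglobin was read as A540 against 0.1% Triton X-100 as full hemolysis. EH50 is the interpolated concentration giving 50% of the control A540.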

[3] = system: Candida albicans B3; assay: Antifungal activity towards resistant (MDR) strains; type: cell-based; settings: fluconazole sensitive, parent strain for B4
Description: (§4) The determination of antifungal activity was performed by the serial dilutions method in buffered RPMI 1640 medium, in a 96-wells microplates, according to the standard procedure (National Committee for Clinical Laboratory Standards. Reference method for broth dilution antifungal susceptibility testing of yeast, approved standard, 2nd ed. M27-A2 vol. 22 Wayne, Pa., 2002). The optical density of cells suspension was measured using a microplates reader (Victor^3, Perkin-Elmer) at the wavelength λ=660 nm (A660). On the basis of received results the diagrams on interrelation between the A660 value and the concentration of tested compound were made. From these graphs MIC values were read, that are the concentrations of tested compounds, in the presence at which A660 value is at most 20% of A660 value measured in control sample.

[4] = system: Candida albicans F5; assay: as above; type: cell-based; settings: fluconazole-resistant due to the overexpression of CaMDR1 and ERG11
Description: as §4

[5] = system: Candida albicans STY19; assay: as above; type: cell-based; settings: 5674 mutant derivative, deletion of CDR1
Description: as §4

[6] = system: Candida albicans F2; assay: as above; type: cell-based; settings: fluconazole sensitive, parent strain for F5
Description: as §4

[7] = system: Candida albicans B4; assay: as above; type: cell-based; settings: fluconazole-resistant due to the overexpression of CaMDR1
Description: as §4

[8] = system: Candida albicans 5674; assay: as above; type: cell-based; settings: C. albicans 5674 overexpressing CDR1 and CDR2
Description: as §4

[9] = system: Candida albicans STY31; assay: as above; type: cell-based; settings: 5674 mutant derivative, deletion of CDR1 and CDR2
Description: as §4

[10] = system: Candida albicans Gu5; assay: as above; type: cell-based; settings: fluconazole-resistant due to the overexpression of CDR1 and CDR2
Description: as §4

[11] = system: Candida albicans STY7; assay: as above; type: cell-based; settings: 5674 mutant derivative, deletion of CDR2
Description: as §4

[12] = system: Candida albicans Gu4; assay: as above; type: cell-based; settings: fluconazole sensitive, parent strain for Gu5
Description: as §4

[13] = system: Candida pseudotropicalis KKP 324; assay: Antifungal activity in vitro, serial dilution in RPMI 1640; type: cell-based; settings: Table 2B
Outline: (§5)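 In buffered RPMI 1640 at pH 7.0, fungi were exposed to serially diluted compound (M27-A2 standard) and turbidity was recorded at 531 nm. Values relative to control: IC50 at 50%, MIC as lowest concentration at ≤20%.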

[14] = system: Candida albicans ATCC 10231; assay: as above; type: cell-based; settings: for Antifungal activity Candida albicans ATCC 10231 IC50 / Antifungal activity Candida albicans ATCC 10231 MIC: Table 2A, RPMI 1640, pH 7.0; for Antifungal activity Candida albicans ATCC 10231 IC50: A531 50% of control; for Antifungal activity Candida albicans ATCC 10231 MIC: A531 at most 20% of control; for MIC Candida albicans ATCC 10231: Table 2B
Outline: as §5

[15] = system: Candida lipolytica KKP 322; assay: as above; type: cell-based; settings: Table 2B
Outline: as §5

[16] = system: Trichoderma viride LOCK E159; assay: as above; type: cell-based; settings: Table 2B
Outline: as §5

[17] = system: Candida parapsilosis DSM 5784; assay: as above; type: cell-based; settings: Table 2B
Outline: as §5

[18] = system: Candida arborea KKP 319; assay: as above; type: cell-based; settings: Table 2B
Outline: as §5

[19] = system: Saccharomyces cerevisiae ATCC 9763; assay: as above; type: cell-based; settings: for Antifungal activity Saccharomyces cerevisiae ATCC 9763 MIC: Table 2A, RPMI 1640, pH 7.0, A531 at most 20% of control; for MIC Saccharomyces cerevisiae ATCC 9763: Table 2B
Outline: as §5

[20] = system: Candida stellatoidea CBS 1905; assay: as above; type: cell-based; settings: Table 2B
Outline: as §5

[21] = system: Candida dubliniensis CBS 7987; assay: as above; type: cell-based; settings: Table 2B
Outline: as §5

[22] = system: Candida krusei DSM 6128; assay: as above; type: cell-based; settings: Table 2A; RPMI 1640, pH 7.0
Outline: as §5

[23] = system: Candida tropicalis KKP 334; assay: as above; type: cell-based; settings: Table 2A; RPMI 1640, pH 7.0
Outline: as §5

[24] = system: Aspergillus niger LOCK E201; assay: as above; type: cell-based; settings: Table 2B
Outline: as §5

[25] = system: Candida quilliermondii DSM 11947; assay: as above; type: cell-based; settings: Table 2B
Outline: as §5

[26] = system: Candida glabrata DSM 11226; assay: as above; type: cell-based; settings: Table 2A; RPMI 1640, pH 7.0
Outline: as §5

[27] = system: CCRF-CEM; assay: Cytotoxic activity against mammalian cells in tissue culture (MTT); type: cell-based, human
Description: as §1, §2, §3

[28] = system: HepG2; assay: as above; type: cell-based, human
Description: as §1, §2, §3

For CC1OC(O[C@H]2/C=C/C=C/C=C/C=C/CC/C=C/C=C/[C@H](C)[C@@H](O)[C@@H](C)[C@H](C)OC(=O)C[C@H](O)C[C@H](O)C[C@H](O)CC[C@@H](O)[C@H](O)CC3(O)C[C@H](O)[C@@H](C(=O)O)[C@H](C2)O3)C(O)C(NC(=O)[C@H](N)CCC(=O)OC(C)(C)C)C1O (stereo partly drawn) [Compound N37, N-D-(O-tert-butyl)glutamylnystatin A1], the “Cytotoxicity IC50 LLC-PK1” value [1] was 85.5 ± 4.30 µg/mL, the “% of hemolysis at the concentration 60 μg ml^−1” value [2] was 0.04% and the “MIC Candida albicans B3” value [3] was 8 µg/mL (≈ 7.2 µM). For the same compound, the “MIC Candida albicans F5” value [4] was 16 µg/mL (≈ 14.4 µM), the “MIC Candida albicans STY19” value [5] was 32 µg/mL (≈ 28.8 µM) and the “MIC Candida albicans F2” value [6] was 16 µg/mL (≈ 14.4 µM). The “MIC Candida albicans B4” value [7] was 8 µg/mL (≈ 7.2 µM), the “MIC Candida albicans 5674” value [8] was 32 µg/mL (≈ 28.8 µM) and the “MIC Candida albicans STY31” value [9] was 32 µg/mL (≈ 28.8 µM). The “MIC Candida albicans Gu5” value [10] was 8 µg/mL (≈ 7.2 µM), the “MIC Candida albicans STY7” value [11] was 32 µg/mL (≈ 28.8 µM) and the “MIC Candida albicans Gu4” value [12] was 8 µg/mL (≈ 7.2 µM). The “MIC Candida pseudotropicalis KKP 324” value [13] was 8 µg/mL (≈ 7.2 µM), the “Antifungal activity Candida albicans ATCC 10231 IC50” value [14] was 2.73 µg/mL and the “Antifungal activity Candida albicans ATCC 10231 MIC” value [14] was 4 µg/mL. For the same compound, the “MIC Candida albicans ATCC 10231” value [14] was 4 µg/mL (≈ 3.6 µM), the “MIC Candida lipolytica KKP 322” value [15] was 16 µg/mL (≈ 14.4 µM) and the “MIC Trichoderma viride LOCK E159” value [16] was 32 µg/mL (≈ 28.8 µM). The “MIC Candida parapsilosis DSM 5784” value [17] was 16 µg/mL (≈ 14.4 µM), the “MIC Candida arborea KKP 319” value [18] was 32 µg/mL (≈ 28.8 µM) and the “Antifungal activity Saccharomyces cerevisiae ATCC 9763 MIC” value [19] was 4 µg/mL. For the same compound, the “MIC Saccharomyces cerevisiae ATCC 9763” value [19] was 4 µg/mL (≈ 3.6 µM), the “MIC Candida stellatoidea CBS 1905” value [20] was 8 µg/mL (≈ 7.2 µM) and the “MIC Candida dubliniensis CBS 7987” value [21] was 8 µg/mL (≈ 7.2 µM). The “Antifungal activity Candida krusei DSM 6128 MIC” value [22] was 8 µg/mL, the “Antifungal activity Candida tropicalis KKP 334 MIC” value [23] was 4 µg/mL and the “MIC Aspergillus niger LOCK E201” value [24] was 16 µg/mL (≈ 14.4 µM). The “MIC Candida quilliermondii DSM 11947” value [25] was 16 µg/mL (≈ 14.4 µM), the “Antifungal activity Candida glabrata DSM 11226 MIC” value [26] was 8 µg/mL and the “Cytotoxicity IC50 CCRF-CEM” value [27] was >100 µg/mL. The “Cytotoxicity IC50 HepG2” value [28] was >100 µg/mL.

CC1OC(O[C@H]2/C=C/C=C/C=C/C=C/CC/C=C/C=C/[C@H](C)[C@@H](O)[C@@H](C)[C@H](C)OC(=O)C[C@H](O)C[C@H](O)C[C@H](O)CC[C@@H](O)[C@H](O)CC3(O)C[C@H](O)[C@@H](C(=O)O)[C@H](C2)O3)C(O)C(NC(=O)[C@H](N)CC(=O)OC(C)(C)C)C1O (stereo partly drawn) [Compound N41, N-D-(O-tert-butyl)asparagylnystatin A1] was tested, and the “Cytotoxicity IC50 LLC-PK1” value [1] was >100 µg/mL, the “% of hemolysis at the concentration 60 μg ml^−1” value [2] was 0.15% and the “MIC Candida albicans B3” value [3] was 8 µg/mL (≈ 7.29 µM). For the same compound, the “MIC Candida albicans F5” value [4] was 16 µg/mL (≈ 14.6 µM), the “MIC Candida albicans STY19” value [5] was 0.5 µg/mL (≈ 0.456 µM) and the “MIC Candida albicans F2” value [6] was 16 µg/mL (≈ 14.6 µM). The “MIC Candida albicans B4” value [7] was 16 µg/mL (≈ 14.6 µM), the “MIC Candida albicans 5674” value [8] was 16 µg/mL (≈ 14.6 µM) and the “MIC Candida albicans STY31” value [9] was 16 µg/mL (≈ 14.6 µM). The “MIC Candida albicans Gu5” value [10] was 8 µg/mL (≈ 7.29 µM), the “MIC Candida albicans STY7” value [11] was 16 µg/mL (≈ 14.6 µM) and the “MIC Candida albicans Gu4” value [12] was 8 µg/mL (≈ 7.29 µM). For the same compound, the “MIC Candida pseudotropicalis KKP 324” value [13] was 4 µg/mL (≈ 3.65 µM), the “Antifungal activity Candida albicans ATCC 10231 IC50” value [14] was 4.69 µg/mL and the “Antifungal activity Candida albicans ATCC 10231 MIC” value [14] was 8 µg/mL. The “MIC Candida albicans ATCC 10231” value [14] was 8 µg/mL (≈ 7.29 µM), the “MIC Candida lipolytica KKP 322” value [15] was 8 µg/mL (≈ 7.29 µM) and the “MIC Trichoderma viride LOCK E159” value [16] was 32 µg/mL (≈ 29.2 µM). For the same compound, the “MIC Candida parapsilosis DSM 5784” value [17] was 8 µg/mL (≈ 7.29 µM), the “MIC Candida arborea KKP 319” value [18] was 8 µg/mL (≈ 7.29 µM) and the “Antifungal activity Saccharomyces cerevisiae ATCC 9763 MIC” value [19] was 4 µg/mL. For the same compound, the “MIC Saccharomyces cerevisiae ATCC 9763” value [19] was 4 µg/mL (≈ 3.65 µM), the “MIC Candida stellatoidea CBS 1905” value [20] was 4 µg/mL (≈ 3.65 µM) and the “MIC Candida dubliniensis CBS 7987” value [21] was 2 µg/mL (≈ 1.82 µM). The “Antifungal activity Candida krusei DSM 6128 MIC” value [22] was 8 µg/mL, the “Antifungal activity Candida tropicalis KKP 334 MIC” value [23] was 4 µg/mL and the “MIC Aspergillus niger LOCK E201” value [24] was 8 µg/mL (≈ 7.29 µM). The “MIC Candida quilliermondii DSM 11947” value [25] was 8 µg/mL (≈ 7.29 µM), the “Antifungal activity Candida glabrata DSM 11226 MIC” value [26] was 8 µg/mL and the “Cytotoxicity IC50 CCRF-CEM” value [27] was >100 µg/mL. For the same compound, the “Cytotoxicity IC50 HepG2” value [28] was >100 µg/mL.
